In patent US10040788B2, “1,3,4-thiadiazole compounds and their use in treating cancer” (AstraZeneca AB, priority 2014, dated 2018):
pIC50: −log10 of the molar value.

Key:
GLS1 = GLS1 (Homo sapiens (Human), UniProt O94925); experiment: GLS Enzyme Potency Assay (Glutamate Oxidase/AmplexRed coupled assay); format: biochemical; settings: 6His tagged GLS protein (amino acids 63-669); geometric mean where repeated
Description: The following assays were used to measure the effects of the compounds of the present invention: a) GLS Enzyme Potency Assay; b) GLS Cell Potency Assay; c) GLS Cell Proliferation Assay; and d) Mouse Xenograft Model. During the description of the assays, generally: • i. The following abbreviations have been used: CO2=Carbon dioxide; DMEM=Dulbecco's Modified Eagle Medium; DMSO=Dimethyl sulphoxide; EDTA=Ethylenediaminetetraacetic acid; EGTA=Ethylene glycol tetraacetic acid; FCS=Foetal calf serum; h=Hour(s); NBS=Non-binding surface; SDS=Sodium dodecyl sulphate; r.t.=room temperature; TRIS=Tris(Hydroxymethyl)aminomethane. • ii. IC50 values were calculated using a smart fitting model in Genedata. […] Assay a): GLS Enzyme Potency Assay
A Glutamate Oxidase/AmplexRed coupled assay was used to measure the ability of compounds to bind to and inhibit the activity of GLS1 in vitro. […] GLS1 was diluted to 2× working concentration and incubated at r.t. to allow the tetrameric/dimeric forms to reach steady state. Assay measurements were performed in buffer comprising 50 mM TRIS pH 7.8, 100 mM NaPO4, pH 7.8, 0.001% v/v Tween20. […] DMSO concentration was maintained at 2% by back filling with DMSO solution. […] 3 μL of 100 mM glutamine diluted in assay buffer was then added and the reaction incubated at r.t. for 60 minutes. […] An artefact version of the assay where the 6His tagged GLS protein and glutamine were replaced with assay buffer was also used to rule out non specific effects on the assay components.

cellular GLS activity = cellular GLS activity (Homo sapiens (Human), UniProt O94925); experiment: GLS Cell Potency Assay (PC3 coupled assay measuring cellular glutamate depletion); format: cell-based; settings: PC3 cells, 6 h incubation, cellular glutamate depletion; geometric mean where repeated; read-out: Assay b) GLS Cell Potency Assay IC50
Description: (§1) The following assays were used to measure the effects of the compounds of the present invention: a) GLS Enzyme Potency Assay; b) GLS Cell Potency Assay; c) GLS Cell Proliferation Assay; and d) Mouse Xenograft Model. During the description of the assays, generally: • i. The following abbreviations have been used: CO2=Carbon dioxide; DMEM=Dulbecco's Modified Eagle Medium; DMSO=Dimethyl sulphoxide; EDTA=Ethylenediaminetetraacetic acid; EGTA=Ethylene glycol tetraacetic acid; FCS=Foetal calf serum; h=Hour(s); NBS=Non-binding surface; SDS=Sodium dodecyl sulphate; r.t.=room temperature; TRIS=Tris(Hydroxymethyl)aminomethane. • ii. […]
Compounds were assessed for their potential to inhibit cellular GLS activity by use of a PC3 coupled assay measuring cellular glutamate depletion. […] DMSO concentration was maintained at 0.3% by back filling with DMSO solution. PC3 cells were grown in phenol free DMEM, 10% dialyzed FCS, 2 mM glutamine and following dispersal by trypsinisation were plated at 5.6×10^3 cells per well in 40 μl of growth medium directly into the 384 well assay plates containing dispensed compound. After incubation for 6 h at 37° C., 5% CO2 growth media was aspirated and cells lysed in 15 μl of buffer containing 10 mM TRIS pH7.4, 100 mM NaCl, 1 mM EDTA, 1 mM EGTA, 1 mM NaF, 20 mM Na4P2O7, 2 mM Na3VO4, 1% Triton X-100, 10% glycerol, 0.1% SDS and 0.5% deoxycholate.

NCI-H1703 cells = experiment: GLS Cell Proliferation Assay (NCI-H1703); format: cell-based, human; settings: Homo sapiens, 120 h; NCI-H1703 cells, 5 days incubation; geometric mean where repeated; read-out: Assay c) GLS Cell Proliferation Assay
Description: as §1
The ability of compounds to inhibit cell growth was measured using a 384 well plate NCI-H1703 cell proliferation assay. NCI-H1703 cells were grown in phenol red free RPMI1640, 10% FCS and 2 mM glutamine and seeded at a density of 750 cells per well in 40 μl of growth medium into clear-bottom 384 well assay plates (Corning product code 3712) and incubated for 24 h at 37° C., 5% CO2. […] DMSO concentration was maintained at 0.3% by back filling with DMSO solution. Plates were incubated for 5 days at 37° C., 5% CO2, Sytox Green and Saponin added to final concentration of 2 μM and 0.25% respectively and incubated for 6 h prior to analysis. Plates were read on an Acumen eX3 (TTP Labtech) using 488 nm excitation and FITC filter set (500-530 nm) for emission. IC50 values were calculated by curve fitting to max inhibition of day zero growth using GeneData software analysis.

Chain of GLS1 (O94925 63-669): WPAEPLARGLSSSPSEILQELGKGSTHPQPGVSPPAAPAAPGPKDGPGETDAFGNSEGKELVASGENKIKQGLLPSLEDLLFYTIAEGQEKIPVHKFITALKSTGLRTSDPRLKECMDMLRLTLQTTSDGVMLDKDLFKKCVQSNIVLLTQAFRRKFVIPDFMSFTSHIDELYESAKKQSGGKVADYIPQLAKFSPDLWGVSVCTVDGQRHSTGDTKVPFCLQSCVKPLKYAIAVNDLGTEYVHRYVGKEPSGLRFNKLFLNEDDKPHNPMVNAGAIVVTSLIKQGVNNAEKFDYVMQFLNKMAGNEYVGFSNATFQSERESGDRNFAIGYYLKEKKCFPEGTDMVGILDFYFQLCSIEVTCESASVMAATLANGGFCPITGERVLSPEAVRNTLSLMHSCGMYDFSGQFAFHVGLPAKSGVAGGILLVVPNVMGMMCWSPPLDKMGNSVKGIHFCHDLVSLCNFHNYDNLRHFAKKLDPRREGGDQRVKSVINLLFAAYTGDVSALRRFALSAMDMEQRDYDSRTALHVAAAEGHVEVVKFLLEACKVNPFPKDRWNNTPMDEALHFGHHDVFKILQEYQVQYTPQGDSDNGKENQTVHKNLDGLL
Chain of cellular GLS activity (O94925 55-669): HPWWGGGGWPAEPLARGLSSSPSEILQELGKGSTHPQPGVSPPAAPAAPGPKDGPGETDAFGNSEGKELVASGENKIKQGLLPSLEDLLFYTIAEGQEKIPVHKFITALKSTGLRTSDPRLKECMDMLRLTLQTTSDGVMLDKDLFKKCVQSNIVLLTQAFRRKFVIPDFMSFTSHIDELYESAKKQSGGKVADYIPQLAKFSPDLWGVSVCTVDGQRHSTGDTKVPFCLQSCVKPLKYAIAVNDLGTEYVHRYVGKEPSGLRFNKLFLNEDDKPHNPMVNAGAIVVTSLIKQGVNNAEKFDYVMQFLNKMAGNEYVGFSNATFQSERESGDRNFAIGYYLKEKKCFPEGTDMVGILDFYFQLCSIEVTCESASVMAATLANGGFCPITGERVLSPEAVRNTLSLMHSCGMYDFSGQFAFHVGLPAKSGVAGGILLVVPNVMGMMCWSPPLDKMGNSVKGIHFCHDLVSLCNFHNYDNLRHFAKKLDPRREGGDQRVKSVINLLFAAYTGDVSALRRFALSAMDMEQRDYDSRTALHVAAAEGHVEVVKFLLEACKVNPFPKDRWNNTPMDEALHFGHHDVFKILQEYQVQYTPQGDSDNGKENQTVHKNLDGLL

Row | SMILES | pIC50 (GLS1) | pIC50 (cellular GLS activity) | pIC50 (NCI-H1703 cells)
1 | CO[C@H](C(=O)Nc1nnc(N[C@@H]2CCN(c3cncnn3)C2)s1)c1ccccc1 [Example 3, (2S)-2-Methoxy-2-phenyl-N-[5-[[(3R)-1-(1,2,4-triazin-6-yl)pyrrolidin-3-yl]amino]-1,3,4-thiadiazol-2-yl]acetamide] | 7.54 | 9.41 | 8.49
2 | CCO[C@@H](C(=O)Nc1nnc(N[C@@H]2CCN(c3nccnn3)C2)s1)c1ccc(F)cc1 [35(b), (2R)-2-ethoxy-2-(4-fluorophenyl)-N-[5-[[(3R)-1-(1,2,4-triazin-3-yl)pyrrolidin-3-yl]amino]-1,3,4-thiadiazol-2-yl]acetamide] | 6.81 | 7.73 | 6.39
3 | COc1cc([C@@H](OC)C(=O)Nc2nnc(N[C@@H]3CCN(c4cccnn4)C3)s2)ccc1F [Example 14(b), (2R)-2-(4-Fluoro-3-methoxy-phenyl)-2-methoxy-N-[5-[[(3R)-1-pyridazin-3-ylpyrrolidin-3-yl]amino]-1,3,4-thiadiazol-2-yl]acetamide] | 6.77 | 7.19 | 6.29
4 | CCO[C@H](C(=O)Nc1nnc(N[C@@H]2CCN(c3nccnn3)C2)s1)c1ccc(F)cc1 [35(a), (2S)-2-ethoxy-2-(4-fluorophenyl)-N-[5-[[(3R)-1-(1,2,4-triazin-3-yl)pyrrolidin-3-yl]amino]-1,3,4-thiadiazol-2-yl]acetamide] | 5.71 | 6.47 | 5.15
5 | CO[C@@H](C(=O)Nc1nnc(N[C@@H]2CCN(c3cccnn3)C2)s1)c1cccc(OC(F)(F)F)c1 [Example 9(b), (2R)-2-Methoxy-N-[5-[[(3R)-1-pyridazin-3-ylpyrrolidin-3-yl]amino]-1,3,4-thiadiazol-2-yl]-2-[3-(trifluoromethoxy)phenyl]acetamide] | 7.48 | 8.64 | 8.36
6 | CCO[C@@H](C(=O)Nc1nnc(N[C@@H]2CCN(c3nccnn3)C2)s1)c1ccc(F)c(OC)c1 [33(b), (2R)-2-ethoxy-2-(4-fluoro-3-methoxy-phenyl)-N-[5-[[(3R)-1-(1,2,4-triazin-3-yl)pyrrolidin-3-yl]amino]-1,3,4-thiadiazol-2-yl]acetamide] | 5.70 | 6.16 | 5.26
7 | COc1cccc([C@H](OC)C(=O)Nc2nnc(N[C@@H]3CCN(c4cccnn4)C3)s2)c1 [Example 5(a), (2S)-2-Methoxy-2-(3-methoxyphenyl)-N-[5-[[(3R)-1-pyridazin-3-ylpyrrolidin-3-yl]amino]-1,3,4-thiadiazol-2-yl]acetamide] | 7.67 | 9.72 | 8.47
8 | COc1cccc([C@H](OC)C(=O)Nc2nnc(N[C@@H]3CCN(c4cncnn4)C3)s2)c1 [21(a), (2S)-2-methoxy-2-(3-methoxyphenyl)-N-[5-[[(3R)-1-(1,2,4-triazin-6-yl)pyrrolidin-3-yl]amino]-1,3,4-thiadiazol-2-yl]acetamide] |  | 7.80 | 6.77
9 | COc1cccc([C@@H](OC)C(=O)Nc2nnc(N[C@@H]3CCN(c4nccnn4)C3)s2)c1 [Example 4(b), (2R)-2-Methoxy-2-(3-methoxyphenyl)-N-[5-[[(3R)-1-(1,2,4-triazin-3-yl)pyrrolidin-3-yl]amino]-1,3,4-thiadiazol-2-yl]acetamide] | 6.04 | 7.12 | 6.58
10 | CO[C@@H](C(=O)Nc1nnc(N[C@@H]2CCN(c3nccnn3)C2)s1)c1cccc(OC(F)F)c1 [19(b), (2R)-2-[3-(difluoromethoxy)phenyl]-2-methoxy-N-[5-[[(3R)-1-(1,2,4-triazin-3-yl)pyrrolidin-3-yl]amino]-1,3,4-thiadiazol-2-yl]acetamide] | 6.29 | 7.43 | 
11 | CCO[C@@H](C(=O)Nc1nnc(N[C@@H]2CCN(c3nccnn3)C2)s1)c1ccccc1 [34(b), (2R)-2-ethoxy-2-phenyl-N-[5-[[(3R)-1-(1,2,4-triazin-3-yl)pyrrolidin-3-yl]amino]-1,3,4-thiadiazol-2-yl]acetamide] | 5.83 | 6.77 | 5.54
12 | CCO[C@@H](C(=O)Nc1nnc(N[C@@H]2CCN(c3cccnn3)C2)s1)c1ccc(F)cc1 [Example 13(b), (2R)-2-Ethoxy-2-(4-fluorophenyl)-N-[5-[[(3R)-1-pyridazin-3-ylpyrrolidin-3-yl]amino]-1,3,4-thiadiazol-2-yl]acetamide] | 6.77 | 7.85 | 6.25
13 | CCO[C@H](C(=O)Nc1nnc(N[C@@H]2CCN(c3nccnn3)C2)s1)c1ccc(OC)cc1 [29(a), (2S)-2-ethoxy-2-(4-methoxyphenyl)-N-[5-[[(3R)-1-(1,2,4-triazin-3-yl)pyrrolidin-3-yl]amino]-1,3,4-thiadiazol-2-yl]acetamide] | 6.96 | 8.27 | 6.90
14 | CCO[C@@H](C(=O)Nc1nnc(N[C@@H]2CCN(c3cccnn3)C2)s1)c1ccccc1 [Example 10(b), (2R)-2-Ethoxy-2-phenyl-N-[5-[[(3R)-1-pyridazin-3-ylpyrrolidin-3-yl]amino]-1,3,4-thiadiazol-2-yl]acetamide] | 6.96 | 7.89 | 6.63
15 | CCO[C@@H](C(=O)Nc1nnc(N[C@@H]2CCN(c3cccnn3)C2)s1)c1ccc(F)c(OC)c1 [31(b), (2R)-2-ethoxy-2-(4-fluoro-3-methoxy-phenyl)-N-[5-[[(3R)-1-pyridazin-3-ylpyrrolidin-3-yl]amino]-1,3,4-thiadiazol-2-yl]acetamide] | 7.06 | 7.48 | 6.20
16 | COc1ccc([C@H](OC)C(=O)Nc2nnc(N[C@@H]3CCN(c4cccnn4)C3)s2)cc1 [Example 11, (2S)-2-Methoxy-2-(4-methoxyphenyl)-N-[5-[[(3R)-1-pyridazin-3-ylpyrrolidin-3-yl]amino]-1,3,4-thiadiazol-2-yl]acetamide] | 7.51 | 9.40 | 7.97
17 | COc1cc([C@H](OC)C(=O)Nc2nnc(N[C@@H]3CCN(c4nccnn4)C3)s2)ccc1F [32(a), (2S)-2-(4-fluoro-3-methoxy-phenyl)-2-methoxy-N-[5-[[(3R)-1-(1,2,4-triazin-3-yl)pyrrolidin-3-yl]amino]-1,3,4-thiadiazol-2-yl]acetamide] | 5.61 | 6.52 | 5.53
18 | CCO[C@H](C(=O)Nc1nnc(N[C@@H]2CCN(c3cccnn3)C2)s1)c1ccc(F)c(OC)c1 [31(a), (2S)-2-ethoxy-2-(4-fluoro-3-methoxy-phenyl)-N-[5-[[(3R)-1-pyridazin-3-ylpyrrolidin-3-yl]amino]-1,3,4-thiadiazol-2-yl]acetamide] | 7.30 | 9.25 | 7.78
19 | CCO[C@H](C(=O)Nc1nnc(N[C@@H]2CCN(c3cccnn3)C2)s1)c1ccccc1 [Example 10(a), (2S)-2-Ethoxy-2-phenyl-N-[5-[[(3R)-1-pyridazin-3-ylpyrrolidin-3-yl]amino]-1,3,4-thiadiazol-2-yl]acetamide] |  | 9.04 | 7.96
